Measured values taken from patent US20260166039A1 (SCHRÖDINGER, INC., priority 2022, published 2026).
Like-named read-outs stand apart in the source and are kept apart here.

Legend:
Wee1 kinase domain = biological target: T1, Wee1 kinase domain (Homo sapiens, UniProt P30291); experiment: Wee1 Kinase Biochemical Assay (ADP-Glo); settings: 15 uM ATP
T1 construct: Wee1 kinase domain was purchased from Carna (catalog #05-177); purchased Carna 05-177
Method in brief: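 1 nM enzyme; 15 uM ATP; 2 ng/mL poly(Lys,Tyr 4:1); 40 mM Tris-HCl, 20 mM MgCl2, 0.1 mg/mL BSA, 2 mM DTT; 4 h, 25 °C; ADP-Glo; % inhibition vs DMSO and saturating positive-control wells.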

[1] = system: phosphorylation of Cdc2 Y15 (Wee1 substrate) in A427 cells; experiment: Phosphorylated Cdc2 MSD Electrochemiluminescence Assay; format: cell-based; settings: Homo sapiens
Method in brief: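 A427 cells (RPMI 1640, 10% FBS) treated 20 h after plating with 3-fold serial compound dilutions, in duplicate, 37 °C, 5% CO2; total incubation 6 h. Lysate Cdc2 pY15 read by MSD electrochemiluminescence sandwich immunoassay; % remaining signal normalised to DMSO (high) and reference Wee1 inhibitor (low) controls.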

[2] = class symbols, 1 nM Wee1 enzyme, 4 hours at 25° C.
[3] = A-427, class symbols, read-out: A427 pCDC2 MSD IC50

T1 sequence (P30291 299-569 limits assumed): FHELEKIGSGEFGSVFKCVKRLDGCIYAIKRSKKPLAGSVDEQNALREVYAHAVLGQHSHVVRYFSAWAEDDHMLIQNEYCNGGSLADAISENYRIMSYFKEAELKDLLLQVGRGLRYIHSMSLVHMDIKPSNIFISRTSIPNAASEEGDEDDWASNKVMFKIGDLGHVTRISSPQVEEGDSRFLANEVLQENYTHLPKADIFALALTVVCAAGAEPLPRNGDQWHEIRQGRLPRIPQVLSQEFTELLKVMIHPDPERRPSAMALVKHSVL

## Cc1cc(Nc2ncc3c(n2)N(c2cccc(N=S(C)(C)=O)n2)[C@@H]2CC(C)(C)OC[C@]32C)ccc1[C@@H]1CCN(C)C1 (single isomer, unassigned) [Example 145]
Wee1 kinase domain; Wee1 kinase domain, ADP-Glo
  IC50: < 10 nM
[1]; A-427, pCDC2 MSD
  IC50: < 100 nM

## CNCc1cccc(N2c3nc(Nc4cccc(N5CCOCC5)c4)ncc3[C@@]3(C)COC(C)(C)C[C@@H]23)n1 (single isomer, unassigned) [Example 470]
Wee1 kinase domain; [2]
  IC50: < 10 nM
[1]; [3]
  IC50: 100 to 1000 nM

## CC1(C)C[C@H]2N(c3cccc(N=S4(=O)CCCC4)n3)c3nc(NC(=O)C4CC4)ncc3[C@@]2(C)CO1 (single isomer, unassigned) [Example 400]
Wee1 kinase domain; [2]
  IC50: < 10 nM
[1]; [3]
  IC50: 100 to 1000 nM

## CNCc1cccc(N2c3nc(Nc4ccc5c(c4)C(=O)N(C)C5)ncc3[C@@]3(C)COC(C)(C)C[C@@H]23)n1 (single isomer, unassigned) [Example 32]
Wee1 kinase domain; Wee1 kinase domain, ADP-Glo
  IC50: < 10 nM
[1]; A-427, pCDC2 MSD
  IC50: 100 to 1000 nM

## CNCc1cccc(N2c3nc(Nc4ccc(N5CCC(F)(F)C5)cc4)ncc3[C@@]3(C)COC(C)(C)C[C@@H]23)n1 (single isomer, unassigned) [Example 22]
Wee1 kinase domain; Wee1 kinase domain, ADP-Glo
  IC50: < 10 nM
[1]; A-427, pCDC2 MSD
  IC50: 100 to 1000 nM

## Cc1cc(Nc2ncc3c(n2)N(c2cccc([C@@H]4CCCN4)n2)[C@@H]2CC(C)(C)OC[C@]32C)ccc1N1CCOCC1 (single isomer, unassigned) [Example 529]
Wee1 kinase domain; [2]
  IC50: < 10 nM
[1]; [3]
  IC50: 100 to 1000 nM

## C[C@H]1COC(=O)N1c1cccc(N2c3nc(Nc4ccc(N5CCN(C)CC5=O)cc4)ncc3[C@@]3(C)COC(C)(C)C[C@@H]23)n1 (single isomer, unassigned) [Example 271]
Wee1 kinase domain; Wee1 kinase domain, ADP-Glo
  IC50: < 10 nM
[1]; A-427, pCDC2 MSD
  IC50: 100 to 1000 nM

## CN1CCC[C@H](n2cc(Nc3ncc4c(n3)N(c3cccc(N=S(C)(C)=O)n3)[C@@H]3CC(C)(C)OC[C@]43C)cn2)C1 (single isomer, unassigned) [Example 199]
Wee1 kinase domain; Wee1 kinase domain, ADP-Glo
  IC50: < 10 nM
[1]; A-427, pCDC2 MSD
  IC50: 100 to 1000 nM

## CN1CCN(c2ccc(Nc3ncc4c(n3)N(c3cccc(N5C(=O)OCC5(C)C)n3)[C@@H]3CC(C)(C)OC[C@]43C)cc2)CC1 (single isomer, unassigned) [Example 728]
Wee1 kinase domain; [2]
  IC50: < 10 nM
[1]; [3]
  IC50: 100 to 1000 nM

## C[C@H]1COC(=O)N1c1cccc(N2c3nc(Nc4ccc(O[C@H]5CCNC5)nc4)ncc3[C@@]3(C)COC(C)(C)C[C@@H]23)n1 (single isomer, unassigned) [Example 285]
Wee1 kinase domain; Wee1 kinase domain, ADP-Glo
  IC50: < 10 nM
[1]; A-427, pCDC2 MSD
  IC50: 100 to 1000 nM

## C[C@H]1COC(=O)N1c1cccc(N2c3nc(Nc4ccc(N5C[C@H]6C[C@@H]5CN6C)cc4)ncc3[C@@]3(C)COC(C)(C)C[C@@H]23)n1 (single isomer, unassigned) [Example 247]
Wee1 kinase domain; Wee1 kinase domain, ADP-Glo
  IC50: < 10 nM
[1]; A-427, pCDC2 MSD
  IC50: 100 to 1000 nM

## CN1C[C@H]2C[C@@H]1CN2c1ccc(Nc2ncc3c(n2)N(c2cccc(C4(O)CC4)n2)C2CC(C)(C)OCC32C)cc1 (stereo in doubt) [Example 646, 1-(6-((4bR,8aR)-4b,7,7-trimethyl-2-((4-((1R,4R)-5-methyl-2,5-diazabicyclo[2.2.1]heptan-2-yl)phenyl)amino)-4b,7,8,8a-tetrahydropyrano[3′,4′:4,5]pyrrolo[2,3-d]pyrimidin-9(5H)-yl)pyridin-2-yl)cyclopropan-1-ol]
Wee1 kinase domain; [2]
  IC50: < 10 nM
[1]; [3]
  IC50: 100 to 1000 nM

## CN1CC[C@H](c2ccc(Nc3ncc4c(n3)N(c3cccc(N5CCOC5=O)n3)[C@@H]3CC(C)(C)OC[C@]43C)cc2)C1 (single isomer, unassigned) [Example 602]
Wee1 kinase domain; [2]
  IC50: < 10 nM
[1]; [3]
  IC50: 100 to 1000 nM

## CC1(C)C[C@H]2N(c3cccc(P(C)(C)=O)n3)c3nc(Nc4ccn([C@H]5CCOC5)c(=O)c4)ncc3[C@@]2(C)CO1 [Example 782, 4-(((4bR,8aR)-9-(6-(dimethylphosphoryl)pyridin-2-yl)-4b,7,7-trimethyl-4b,5,7,8,8a,9-hexahydropyrano[3′,4′:4,5]pyrrolo[2,3-d]pyrimidin-2-yl)amino)-1-((S)-tetrahydrofuran-3-yl)pyridin-2(1H)-one]
Wee1 kinase domain; [2]
  IC50: < 10 nM
[1]; [3]
  IC50: < 100 nM

## C[C@H]1COC(=O)N1c1cccc(N2c3nc(Nc4ccc(N5C[C@H]6C[C@@H]5CN6)cc4)ncc3[C@@]3(C)COC(C)(C)C[C@@H]23)n1 (single isomer, unassigned) [Example 277]
Wee1 kinase domain; Wee1 kinase domain, ADP-Glo
  IC50: < 10 nM
[1]; A-427, pCDC2 MSD
  IC50: 100 to 1000 nM

## CN1C[C@H]2C[C@@H]1CN2c1ccc(Nc2ncc3c(n2)N(c2cccc(N=S(C)(C)=O)n2)[C@@H]2CC(C)(C)OC[C@]32C)cc1F (single isomer, unassigned) [Example 176]
Wee1 kinase domain; Wee1 kinase domain, ADP-Glo
  IC50: < 10 nM
[1]; A-427, pCDC2 MSD
  IC50: 100 to 1000 nM

## CNC1(c2cccc(N3c4nc(Nc5ccc(C6CCN(C)CC6)c(C)c5)ncc4[C@]4(C)COC(C)(C)C[C@H]34)n2)CC1 (single isomer, unassigned) [Example 574]
Wee1 kinase domain; [2]
  IC50: 10 to 100 nM
[1]; [3]
  IC50: 100 to 1000 nM

## CC1(C)C[C@H]2N(c3cccc(N=S(C)(C)=O)n3)c3nc(NC(=O)[C@@H]4C[C@H]4C4CCOCC4)ncc3[C@@]2(C)CO1 (single isomer, unassigned) [Example 412]
Wee1 kinase domain; [2]
  IC50: < 10 nM
[1]; [3]
  IC50: ≥ 10000 nM

## C[C@H]1CCC(=O)N1c1cccc(N2c3nc(Nc4ccc(N5C[C@H]6C[C@@H]5CN6C)cc4)ncc3[C@@]3(C)COC(C)(C)C[C@@H]23)n1 [Example 657, (S)-5-methyl-1-(6-((4bR,8aR)-4b,7,7-trimethyl-2-((4-((1R,4R)-5-methyl-2,5-diazabicyclo[2.2.1]heptan-2-yl)phenyl)amino)-4b,7,8,8a-tetrahydropyrano[3′,4′:4,5]pyrrolo[2,3-d]pyrimidin-9(5H)-yl)pyridin-2-yl)pyrrolidin-2-one]
Wee1 kinase domain; [2]
  IC50: < 10 nM
[1]; [3]
  IC50: 100 to 1000 nM

## CNCc1cccc(N2c3nc(Nc4ccc(N5CCCOCC5)cc4)ncc3[C@@]3(C)COC(C)(C)C[C@@H]23)n1 (single isomer, unassigned) [Example 18]
Wee1 kinase domain; Wee1 kinase domain, ADP-Glo
  IC50: < 10 nM
[1]; A-427, pCDC2 MSD
  IC50: 100 to 1000 nM

## CC1(C)C[C@H]2N(c3cccc(C4CCNCC4)n3)c3nc(Nc4ccc(N5CCOCC5)cc4)ncc3[C@@]2(C)CO1 (single isomer, unassigned) [Example 531]
Wee1 kinase domain; [2]
  IC50: < 10 nM
[1]; [3]
  IC50: 100 to 1000 nM

## CN1CCC(n2cnc(Nc3ncc4c(n3)N(c3cccc(N=S(C)(C)=O)n3)[C@@H]3CC(C)(C)OC[C@]43C)c2)CC1 (single isomer, unassigned) [Example 205]
Wee1 kinase domain; Wee1 kinase domain, ADP-Glo
  IC50: < 10 nM
[1]; A-427, pCDC2 MSD
  IC50: < 100 nM

## CCn1ccc(N2c3nc(Nc4ccc(N5CCN(C)CC5)cc4)ncc3[C@@]3(C)COC(C)(C)C[C@@H]23)n1 (single isomer, unassigned) [Example 744]
Wee1 kinase domain; [2]
  IC50: < 10 nM
[1]; [3]
  IC50: 1000 to 10000 nM

## CNCc1cccc(N2c3nc(Nc4ccc(N5CCCCC5)cc4)ncc3[C@@]3(C)COC(C)(C)C[C@@H]23)n1 (single isomer, unassigned) [Example 2]
Wee1 kinase domain; Wee1 kinase domain, ADP-Glo
  IC50: < 10 nM
[1]; A-427, pCDC2 MSD
  IC50: 100 to 1000 nM

## CN1CCN(c2ccc(Nc3ncc4c(n3)N(c3ccn(C5COC5)n3)[C@@H]3CC(C)(C)OC[C@]43C)cc2)CC1 (single isomer, unassigned) [Example 742]
Wee1 kinase domain; [2]
  IC50: < 10 nM
[1]; [3]
  IC50: 1000 to 10000 nM

## CN1[C@@H]2C[C@H]1CN(c1ccc(Nc3ncc4c(n3)N(c3cccc(N5CCCC5=O)n3)[C@@H]3CC(C)(C)OC[C@]43C)cc1)C2 [Example 703, 1-(6-((4bR,8aR)-4b,7,7-trimethyl-2-((4-((1R,5S)-6-methyl-3,6-diazabicyclo[3.1.1]heptan-3-yl)phenyl)amino)-4b,7,8,8a-tetrahydropyrano[3′,4′:4,5]pyrrolo[2,3-d]pyrimidin-9(5H)-yl)pyridin-2-yl)pyrrolidin-2-one]
Wee1 kinase domain; [2]
  IC50: < 10 nM
[1]; [3]
  IC50: 100 to 1000 nM
